ChEMBL document CHEMBL5344411, “Phenotypic screening-based drug discovery of furan-2-carboxylic acid derivatives for the amelioration of type 2 diabetes mellitus (T2DM)” (Eur J Med Chem, 2023)
Activity calls are given as the source filed them. The rule behind the calls is not given here.

How the values were obtained:
[1] = AUC(last) in CD-1 mouse at 30 mg/kg, po by LC-MS/MS analysis; format: ADME, organism-based; design: dose 30 mg/kg, route po; details: in vivo
[2] = Oral bioavailability in CD-1 mouse at 3 mg/kg by LC-MS/MS analysis; format: ADME, organism-based; details: in vivo
[3] = Cmax in CD-1 mouse at 3 mg/kg, po by LC-MS/MS analysis; format: ADME, organism-based; design: dose 3 mg/kg, route po; details: in vivo
Mus musculus [4] = assay: Inhibition of gluconeogenesis in CD-1 mouse assessed as decrease in blood glucose level at 25 mg/kg administered via gavage at 1 hr prior to pyruvate sodium challenge and measured for 2 hrs by pyruvate tolerance test; format: functional, organism-based; details: time 3.0 hrs
[5] = Oral bioavailability in CD-1 mouse at 1 mg/kg by LC-MS/MS analysis; format: ADME, organism-based; details: in vivo
Hepatocyte [6] = assay: Inhibition of gluconeogenesis in Sprague-Dawley rat hepatocytes at 1 uM incubated for 1.5 hrs followed by sodium pyruvate and sodium lactate addition and measured after 4 hrs by colorimetric analysis relative to control; format: functional; details: time 5.5 hrs
[7] = Half life in CD-1 mouse at 3 mg/kg, po by LC-MS/MS analysis; format: ADME, organism-based; details: in vivo
[8] = Toxicity in diabetic ob/ob mouse assessed as effect on body weight at 5 mg/kg administered via gavage qd for 24 days; format: organism-based; details: in vivo, po, 576 h, time 24 day
[9] = Observed AUCinfinity in CD-1 mouse at 30 mg/kg, po by LC-MS/MS analysis; format: ADME, organism-based; design: dose 30 mg/kg, route po; details: in vivo
[10] = Observed AUCinfinity in CD-1 mouse at 1 mg/kg, iv by LC-MS/MS analysis; format: ADME, organism-based; design: dose 1 mg/kg, route iv; details: in vivo
[11] = Oral bioavailability in CD-1 mouse at 10 mg/kg by LC-MS/MS analysis; format: ADME, organism-based; details: in vivo
[12] = Half life in CD-1 mouse at 1 mg/kg, po by LC-MS/MS analysis; format: ADME, organism-based; details: in vivo
Mus musculus [13] = assay: Inhibition of gluconeogenesis in CD-1 mouse assessed as decrease in blood glucose level at 50 mg/kg administered via gavage at 1 hr prior to pyruvate sodium challenge and measured for 2 hrs by pyruvate tolerance test; format: functional, organism-based; details: time 3.0 hrs
Hepatocyte [14] = assay: Inhibition of gluconeogenesis in Sprague-Dawley rat hepatocytes at 0.3 uM incubated for 1.5 hrs followed by sodium pyruvate and sodium lactate addition and measured after 4 hrs by colorimetric analysis relative to control; format: functional; details: time 5.5 hrs
[15] = Observed volume of distribution at steady state in CD-1 mouse at 1 mg/kg, iv by LC-MS/MS analysis; format: ADME, organism-based; details: in vivo, read-out: Vdss
[16] = Observed MRTinfinity in CD-1 mouse at 10 mg/kg, po by LC-MS/MS analysis; format: ADME, organism-based; details: in vivo
[17] = Half life in CD-1 mouse at 1 mg/kg, iv by LC-MS/MS analysis; format: ADME, organism-based; details: in vivo
[18] = Observed AUCinfinity in CD-1 mouse at 3 mg/kg, po by LC-MS/MS analysis; format: ADME, organism-based; design: dose 3 mg/kg, route po; details: in vivo
[19] = Observed MRTinfinity in CD-1 mouse at 1 mg/kg, po by LC-MS/MS analysis; format: ADME, organism-based; details: in vivo
[20] = Observed clearance in CD-1 mouse at 1 mg/kg, iv by LC-MS/MS analysis; format: ADME, organism-based; details: in vivo
[21] = AUC(last) in CD-1 mouse at 10 mg/kg, po by LC-MS/MS analysis; format: ADME, organism-based; design: dose 10 mg/kg, route po; details: in vivo
[22] = Cmax in CD-1 mouse at 10 mg/kg, po by LC-MS/MS analysis; format: ADME, organism-based; design: dose 10 mg/kg, route po; details: in vivo
[23] = Tmax in CD-1 mouse at 3 mg/kg, po by LC-MS/MS analysis; format: ADME, organism-based; details: in vivo
[24] = Observed MRTinfinity in CD-1 mouse at 1 mg/kg, iv by LC-MS/MS analysis; format: ADME, organism-based; details: in vivo
[25] = Half life in CD-1 mouse at 30 mg/kg, po by LC-MS/MS analysis; format: ADME, organism-based; details: in vivo
[26] = Oral bioavailability in CD-1 mouse at 30 mg/kg by LC-MS/MS analysis; format: ADME, organism-based; details: in vivo
[27] = Tmax in CD-1 mouse at 10 mg/kg, po by LC-MS/MS analysis; format: ADME, organism-based; details: in vivo
[28] = Half life in CD-1 mouse at 10 mg/kg, po by LC-MS/MS analysis; format: ADME, organism-based; details: in vivo
[29] = Cmax in CD-1 mouse at 30 mg/kg, po by LC-MS/MS analysis; format: ADME, organism-based; design: dose 30 mg/kg, route po; details: in vivo
[30] = AUC(last) in CD-1 mouse at 1 mg/kg, iv by LC-MS/MS analysis; format: ADME, organism-based; design: dose 1 mg/kg, route iv; details: in vivo
[31] = Tmax in CD-1 mouse at 1 mg/kg, po by LC-MS/MS analysis; format: ADME, organism-based; details: in vivo
[32] = AUC(last) in CD-1 mouse at 1 mg/kg, po by LC-MS/MS analysis; format: ADME, organism-based; design: dose 1 mg/kg, route po; details: in vivo
[33] = Tmax in CD-1 mouse at 30 mg/kg, po by LC-MS/MS analysis; format: ADME, organism-based; details: in vivo
Mus musculus [34] = assay: Antihyperglycemic activity in diabetic ob/ob mouse assessed as reduction in non-fasting blood glucose level at 5 mg/kg administered via gavage qd for 24 days and measured on day 24; format: functional; details: po, 576 h, time 24 day
[35] = Observed MRTinfinity in CD-1 mouse at 3 mg/kg, po by LC-MS/MS analysis; format: ADME, organism-based; details: in vivo
[36] = Toxicity in diabetic ob/ob mouse assessed as effect on daily food intake at 5 mg/kg administered via gavage qd for 24 days; format: organism-based; details: in vivo, po, 576 h, time 24 day
Mus musculus [37] = assay: Antihyperglycemic activity in diabetic ob/ob mouse assessed as reduction in fasting blood glucose level at 5 mg/kg administered via gavage qd for 24 days and measured on day 24; format: functional; details: po, 576 h, time 24 day
Hepatocyte [38] = assay: Inhibition of gluconeogenesis in Sprague-Dawley rat hepatocytes at 10 uM incubated for 1.5 hrs followed by sodium pyruvate and sodium lactate addition and measured after 4 hrs by colorimetric analysis relative to control; format: functional; details: time 5.5 hrs
Hepatocyte [39] = assay: Inhibition of gluconeogenesis in Sprague-Dawley rat hepatocytes at 3 uM incubated for 1.5 hrs followed by sodium pyruvate and sodium lactate addition and measured after 4 hrs by colorimetric analysis relative to control; format: functional; details: time 5.5 hrs
[40] = AUC(last) in CD-1 mouse at 3 mg/kg, po by LC-MS/MS analysis; format: ADME, organism-based; design: dose 3 mg/kg, route po; details: in vivo
[41] = Observed MRTinfinity in CD-1 mouse at 30 mg/kg, po by LC-MS/MS analysis; format: ADME, organism-based; details: in vivo
[42] = Cmax in CD-1 mouse at 1 mg/kg, po by LC-MS/MS analysis; format: ADME, organism-based; design: dose 1 mg/kg, route po; details: in vivo
[43] = Observed AUCinfinity in CD-1 mouse at 1 mg/kg, po by LC-MS/MS analysis; format: ADME, organism-based; design: dose 1 mg/kg, route po; details: in vivo
[44] = Observed AUCinfinity in CD-1 mouse at 10 mg/kg, po by LC-MS/MS analysis; format: ADME, organism-based; design: dose 10 mg/kg, route po; details: in vivo

CCCc1ccc(OCc2ccc(C(=O)O)o2)cc1OC
AUC(0-t) [1]: 52.7 µg·h/mL | bioavailability [2]: 66.7% | Cmax [3]: 1.46 µg/mL | inhibition (Mus musculus [4]): Active | bioavailability [5]: 55.7% | fold change (FC) (Hepatocyte [6]): 0.64 | half-life [7]: 2.26 h | Activity [8]: Non-Toxic | AUC(0-inf) [9]: 52.8 µg·h/mL | AUC(0-inf) [10]: 1.25 µg·h/mL | bioavailability [11]: 78.9% | half-life [12]: 1.8 h | inhibition (Mus musculus [13]): Active | fold change (FC) (Hepatocyte [14]): 0.75 | Vd [15]: 0.65 L/kg | MRT inf [16]: 2.31 h | half-life [17]: 0.828 h | AUC(0-inf) [18]: 2.48 µg·h/mL | MRT inf [19]: 2.07 h | clearance [20]: 0.81 L/h/kg | AUC(0-t) [21]: 9.59 µg·h/mL | Cmax [22]: 7.58 µg/mL | Tmax [23]: 0.25 h | MRT inf [24]: 0.798 h | half-life [25]: 3.15 h | bioavailability [26]: 144% | Tmax [27]: 0.25 h | half-life [28]: 3.12 h | Cmax [29]: 41 µg/mL | AUC(0-t) [30]: 1.22 µg·h/mL | Tmax [31]: 0.25 h | AUC(0-t) [32]: 0.678 µg·h/mL | Tmax [33]: 0.25 h | inhibition in vivo at 5 mg/kg (Mus musculus [34]): 34.9% | MRT inf [35]: 2.74 h | Activity [36]: Non-Toxic | inhibition in vivo at 5 mg/kg (Mus musculus [37]): 40.5% | fold change (FC) (Hepatocyte [38]): 0.03 | fold change (FC) (Hepatocyte [39]): 0.16 | AUC(0-t) [40]: 2.43 µg·h/mL | MRT inf [41]: 1.7 h | Cmax [42]: 0.547 µg/mL | AUC(0-inf) [43]: 0.709 µg·h/mL | AUC(0-inf) [44]: 9.62 µg·h/mL

CNC(=O)/C=C/c1ccc(OCc2ccc(C(=O)O)o2)c(OC)c1
fold change (FC) (Hepatocyte [38]): 0.85

C=CCc1ccc(OCc2ccc(C(=O)O)o2)cc1
fold change (FC) (Hepatocyte [38]): 0.6

COc1ccccc1OCc1ccc(C(=O)O)o1
fold change (FC) (Hepatocyte [38]): 0.99

CCCc1ccc(OC)c(OCc2ccc(C(=O)O)o2)c1
fold change (FC) (Hepatocyte [38]): 1.18

C=CCc1ccc(OCc2ccc(C(=O)N3CCN(C)CC3)o2)c(OC)c1
fold change (FC) (Hepatocyte [38]): 0.98

C=CCc1ccc(OCc2ncc(C(=O)O)s2)c(OC)c1
fold change (FC) (Hepatocyte [38]): 1.33

COc1cc(/C=C/C(=O)N(C)C)ccc1OCc1ccc(C(=O)O)o1
fold change (FC) (Hepatocyte [38]): 0.77

CCCc1ccc(OCc2ccc(C(=O)O)o2)c(OCCn2cccc2)c1
fold change (FC) (Hepatocyte [38]): 1.28

C=CCc1ccc(OCc2cccc(C(=O)O)n2)c(OC)c1
fold change (FC) (Hepatocyte [38]): 1.11

CCCc1cccc(OC)c1OCc1ccc(C(=O)O)o1
fold change (FC) (Hepatocyte [38]): 0.67

CCCOc1cc(CCC)ccc1OCc1ccc(C(=O)O)o1
fold change (FC) (Hepatocyte [38]): 0.72

CNC(=O)CCc1ccc(OCc2ccc(C(=O)O)o2)c(OC)c1
fold change (FC) (Hepatocyte [38]): 0.98

C=CCc1ccc(OCc2ccc(C(=O)N(C)C)o2)c(OC)c1
fold change (FC) (Hepatocyte [38]): 0.87

C=CCc1cccc(OC)c1OCc1ccc(C(=O)O)o1
fold change (FC) (Hepatocyte [38]): 0.78

Cc1cc(Br)ccc1OCc1ccc(C(=O)O)o1
fold change (FC) (Hepatocyte [6]): 1.01 | inhibition (Mus musculus [13]): Active | fold change (FC) (Hepatocyte [14]): 0.93 | fold change (FC) (Hepatocyte [38]): 0.33 | fold change (FC) (Hepatocyte [39]): 0.37

CNC(=O)Cc1ccc(OCc2ccc(C(=O)O)o2)c(OC)c1
fold change (FC) (Hepatocyte [38]): 1.08

COc1cc(CCC(=O)N(C)C)ccc1OCc1ccc(C(=O)O)o1
fold change (FC) (Hepatocyte [38]): 0.9
